# Measured values reported in the OligoGym collection.
# HELM strings list units from the 5' end as sugar, base in round brackets, then linkage (d deoxyribose, r ribose, m 2'-O-methyl, p phosphodiester). Strings are as the collection lists them; they lack the last nucleoside at the 3' end of the tested compound. [moe] = 2'-O-(2-methoxyethyl) (MOE); [sp] = phosphorothioate linkage; [m5C] = 5-methylcytosine
# Biological target: LRRK2
# Experiment: mouse, dose not given
# Details: ASO
row,Substance,3 h FOB score
1,RNA1{[moe]([m5C])[sp].[moe]([m5C])p.[moe](A)[sp].[moe]([m5C])[sp].[moe](A)[sp].d(A)[sp].d(A)[sp].d([m5C])[sp].d(T)[sp].d([m5C])[sp].d(A)[sp].d(T)[sp].d(G)[sp].d(G)[sp].d(A)[sp].[moe]([m5C])p.[moe](T)p.[moe](T)[sp].[moe]([m5C])}$$$$ (last 3' nucleoside missing),5 score 0-7
2,RNA1{[moe](T)[sp].[moe](T)p.[moe](A)[sp].[moe](A)[sp].[moe](A)[sp].d(A)[sp].d(T)[sp].d([m5C])[sp].d(T)[sp].d(T)[sp].d([m5C])[sp].d(A)[sp].d(G)[sp].d(T)[sp].d(T)[sp].[moe]([m5C])[sp].[moe]([m5C])p.[moe](T)[sp].[moe](T)}$$$$ (last 3' nucleoside missing),0 score 0-7
3,RNA1{[moe](G)[sp].[moe](T)p.[moe](T)p.[moe](T)p.[moe]([m5C])[sp].d(A)[sp].d(T)[sp].d(T)[sp].d([m5C])[sp].d(G)[sp].d(G)[sp].d(T)[sp].d(T)[sp].d(A)[sp].d(T)[sp].[moe](A)p.[moe](A)p.[moe](G)[sp].[moe](G)}$$$$ (last 3' nucleoside missing),7 score 0-7
4,RNA1{[moe]([m5C])[sp].[moe]([m5C])p.[moe](A)p.[moe](T)p.[moe](A)[sp].d(T)[sp].d(T)[sp].d(T)[sp].d(A)[sp].d(G)[sp].d([m5C])[sp].d(T)[sp].d(T)[sp].d(A)[sp].d(T)[sp].[moe](G)p.[moe](A)p.[moe](T)[sp].[moe](G)}$$$$ (last 3' nucleoside missing),7 score 0-7
5,RNA1{[moe](A)[sp].[moe](G)p.[moe](T)[sp].[moe](G)[sp].[moe]([m5C])[sp].d(A)[sp].d(T)[sp].d(G)[sp].d(G)[sp].d([m5C])[sp].d(A)[sp].d(T)[sp].d([m5C])[sp].d(A)[sp].d(A)[sp].[moe](A)[sp].[moe](A)p.[moe](A)[sp].[moe](T)}$$$$ (last 3' nucleoside missing),2 score 0-7
6,RNA1{[moe](T)[sp].[moe](T)p.[moe]([m5C])[sp].[moe](A)[sp].[moe](T)[sp].d(A)[sp].d(G)[sp].d([m5C])[sp].d(T)[sp].d(T)[sp].d([m5C])[sp].d([m5C])[sp].d(A)[sp].d([m5C])[sp].d([m5C])[sp].[moe](A)[sp].[moe]([m5C])p.[moe](A)[sp].[moe](A)}$$$$ (last 3' nucleoside missing),5 score 0-7
7,RNA1{[moe](A)[sp].[moe](A)p.[moe]([m5C])[sp].[moe](G)[sp].[moe]([m5C])[sp].d(A)[sp].d([m5C])[sp].d(T)[sp].d(T)[sp].d(A)[sp].d(A)[sp].d([m5C])[sp].d(A)[sp].d(A)[sp].d(T)[sp].[moe](A)[sp].[moe](T)p.[moe]([m5C])[sp].[moe](A)}$$$$ (last 3' nucleoside missing),0 score 0-7
8,RNA1{[moe]([m5C])[sp].[moe](G)p.[moe]([m5C])p.[moe](A)p.[moe]([m5C])[sp].d(T)[sp].d(T)[sp].d(A)[sp].d(A)[sp].d([m5C])[sp].d(A)[sp].d(A)[sp].d(T)[sp].d(A)[sp].d(T)[sp].[moe]([m5C])p.[moe](A)p.[moe](T)[sp].[moe](A)}$$$$ (last 3' nucleoside missing),0 score 0-7
9,RNA1{[moe](A)[sp].[moe](G)p.[moe](T)p.[moe](T)p.[moe](T)[sp].d([m5C])[sp].d(A)[sp].d(T)[sp].d(T)[sp].d([m5C])[sp].d(G)[sp].d(G)[sp].d(T)[sp].d(T)[sp].d(A)[sp].[moe](T)p.[moe](A)p.[moe](A)[sp].[moe](G)}$$$$ (last 3' nucleoside missing),7 score 0-7
10,RNA1{[moe](A)[sp].[moe](A)p.[moe](G)[sp].[moe](T)[sp].[moe]([m5C])[sp].d([m5C])[sp].d(A)[sp].d(A)[sp].d(A)[sp].d(T)[sp].d(G)[sp].d(T)[sp].d(G)[sp].d(T)[sp].d([m5C])[sp].[moe](A)[sp].[moe](A)p.[moe](A)[sp].[moe]([m5C])}$$$$ (last 3' nucleoside missing),5 score 0-7
11,RNA1{[moe](G)[sp].[moe]([m5C])p.[moe](A)p.[moe]([m5C])p.[moe](A)[sp].d([m5C])[sp].d(A)[sp].d(G)[sp].d(T)[sp].d(G)[sp].d(T)[sp].d(A)[sp].d(G)[sp].d(T)[sp].d([m5C])[sp].[moe](A)p.[moe](T)p.[moe](A)[sp].[moe]([m5C])}$$$$ (last 3' nucleoside missing),2 score 0-7
12,RNA1{[moe]([m5C])[sp].[moe]([m5C])p.[moe](A)p.[moe]([m5C])p.[moe](A)[sp].d(A)[sp].d(A)[sp].d([m5C])[sp].d(T)[sp].d([m5C])[sp].d(A)[sp].d(T)[sp].d(G)[sp].d(G)[sp].d(A)[sp].[moe]([m5C])p.[moe](T)p.[moe](T)[sp].[moe]([m5C])}$$$$ (last 3' nucleoside missing),6 score 0-7
13,RNA1{[moe](T)[sp].[moe](A)p.[moe](A)[sp].[moe]([m5C])[sp].[moe](G)[sp].d([m5C])[sp].d(A)[sp].d([m5C])[sp].d(T)[sp].d(T)[sp].d(A)[sp].d(A)[sp].d([m5C])[sp].d(A)[sp].d(A)[sp].[moe](T)[sp].[moe](A)p.[moe](T)[sp].[moe]([m5C])}$$$$ (last 3' nucleoside missing),2 score 0-7
14,RNA1{[moe]([m5C])[sp].[moe](T)p.[moe](T)[sp].[moe](T)[sp].[moe]([m5C])[sp].d(A)[sp].d(T)[sp].d(A)[sp].d(G)[sp].d([m5C])[sp].d(T)[sp].d(T)[sp].d([m5C])[sp].d([m5C])[sp].d(A)[sp].[moe]([m5C])[sp].[moe]([m5C])p.[moe](A)[sp].[moe]([m5C])}$$$$ (last 3' nucleoside missing),3 score 0-7
15,RNA1{[moe](G)[sp].[moe](A)p.[moe](A)[sp].[moe](A)[sp].[moe](T)[sp].d(G)[sp].d(A)[sp].d(G)[sp].d(T)[sp].d(G)[sp].d([m5C])[sp].d(A)[sp].d(T)[sp].d(G)[sp].d(G)[sp].[moe]([m5C])[sp].[moe](A)p.[moe](T)[sp].[moe]([m5C])}$$$$ (last 3' nucleoside missing),7 score 0-7
16,RNA1{[moe](G)[sp].[moe](G)p.[moe](A)p.[moe](G)p.[moe](A)[sp].d(T)[sp].d(T)[sp].d(A)[sp].d(T)[sp].d(T)[sp].d(T)[sp].d(A)[sp].d(G)[sp].d(T)[sp].d(G)[sp].[moe]([m5C])p.[moe]([m5C])p.[moe]([m5C])[sp].[moe](A)}$$$$ (last 3' nucleoside missing),6 score 0-7
17,RNA1{[moe](T)[sp].[moe](T)p.[moe]([m5C])p.[moe](A)p.[moe](T)[sp].d(T)[sp].d([m5C])[sp].d(G)[sp].d(G)[sp].d(T)[sp].d(T)[sp].d(A)[sp].d(T)[sp].d(A)[sp].d(A)[sp].[moe](G)p.[moe](G)p.[moe]([m5C])[sp].[moe](A)}$$$$ (last 3' nucleoside missing),4 score 0-7
18,RNA1{[moe](T)[sp].[moe](G)p.[moe]([m5C])p.[moe](T)p.[moe](T)[sp].d(T)[sp].d([m5C])[sp].d(A)[sp].d(T)[sp].d(A)[sp].d(G)[sp].d([m5C])[sp].d(T)[sp].d(T)[sp].d([m5C])[sp].[moe]([m5C])p.[moe](A)p.[moe]([m5C])[sp].[moe]([m5C])}$$$$ (last 3' nucleoside missing),0 score 0-7
